# Reference: US10308685B2, “Inhibitory peptides of viral infection” (UNIVERSITY OF TENNESSEE RESEARCH FOUNDATION, priority 2014, dated 2019)
# Where no end group is shown, it is not given here.
# How the values were obtained:
# MCMV [1] = assay type: cell-based, Murine Cytomegalovirus
# Description: (§1) Murine Cytomegalovirus (MCMV) RM4503 was cultured in vitro in MEF 10.1 cells. The virus stock was titered using plaque assay (described below) and stored at −80° C. Human Cytomegalovirus (HCMV) TB40/E was obtained from (46, 47) and cultures in vitro in HFF cells. The virus stock was titered using plaque assay and stored at −80° C. HSV-1 and HSV-2 were cultured in vitro in VERO cells. The virus stock was titered using plaque assay and stored at −80° C.
# (§2) Peptides were screened for their ability to reduce viral infection using a plaque reduction assay. Cells were cultured in 12-well (VERO) or 24-well culture plates (MEF 10.1 and HFF). When the cells reached ˜80% confluence the media was removed and the cells washed once with PBS before addition of peptide. As a control, cells were incubated with PBS alone. After a 30 min of incubation with peptide in PBS, the virus was added and incubated for another 90 min (HSV and HCMV) or 60 min (MCMV). Following virus incubation the peptide/virus mixture was removed and replaced with 0.75% carboxy-methyl cellulose (Sigma Aldrich, St. Louis, Mo.)+complete media (CMC) or 0.5% agarose (Lonza, Rockland, Me.) in complete media. The plates were incubated at 37° C. in 5% CO2 for 4 days when plaques began to develop, following which they were stained with Coomassie stain (AMRESCO, Solon, Ohio). Plaques were counted manually and data analyzed using Prism 5.0 (GraphPad Software, La Jolla, Calif.). Data were expressed as % plaques relative to the average number of plaques in the PBS-treated wells.
# In the initial screening assays all peptides were tested at a single concentration (500 μg/ml) using a plaque-reduction assay, in which mouse embryonic fibroblasts were incubated with the peptides for 30 min prior to the addition of virus.
# In the infectivity assays described above the peptide and virus were co-incubated with the cells. Therefore to ensure the peptide was not directly inactivating the virus, MCMV was incubated with 100 μM (˜20× the IC50) peptide at 37° C. for 1 h, diluted to an ineffective peptide concentration (1 μM) and fibroblast infection rates measured.
# To determine at which stage of the MCMV entry cycle the peptide interferes, four different peptide treatment protocols were tested, 1) 30 min. prior to infection (pre-adsorption) 2) simultaneously with virus (during adsorption) 3) after letting the virus adsorb to the cells at 4° C. for lhr (post adsorption) or 4) after allowing the virus to fuse with the cell membrane at 37° C. for lhr (post fusion) (FIG. 3(B)).
# MCMV [2] = test: Interference of peptide mediated reduction by heparin (MCMV plaque reduction); assay type: cell-based, Murine Cytomegalovirus; conditions: peptide 100 μM pre-incubated with heparin 1 h at 37° C. before addition to cells
# Description: Peptide GGGY-p5+14 (SEQ ID NO: 25) (at 100 μM) was pre-incubated with heparin sodium salt (Acros Organics, NJ) at different concentrations for 1 h at 37° C. Following which the heparin/peptide mix was added to the cells and incubated for 30 min at 37° C. Following the incubation, the supernatant was aspirated and cells washed once with PBS to remove unbound/excess heparin or peptide. The cells were subsequently infected with ˜100 pfu/well of MCMV. To test whether heparin treatment of cells interferes with virus infection, MEF 10.1 cells in a 24 well dish were pre-incubated with different concentrations of heparin for 1 hour and washed as described above. Following the pre-incubation infection was initiated as mentioned above. Finally to test the effect of heparin treatment on the infectivity of virus, MCMV was incubated with different concentration of heparin for lhr before infecting cells. For all these treatments, the virus was removed lhr post infection and cells overlaid with CMC. Plates were incubated for 4 days before staining and counting the plaques. Plaque reduction assay was performed as mentioned above.
# MCMV [3] = test: Enzymatic treatment of cells (heparinase / chondroitinase) followed by MCMV plaque reduction assay; assay type: cell-based, Murine Cytomegalovirus
# Description: (§3) Heparinase I (cat. # H2519), Heparinase II (cat. # H6512), Heparinase III (cat. # H8891) and Chondroitinase ABC (cat. # C3667) were obtained from Sigma Aldrich (St. Louis, Mo.). MEF 10.1 cells in culture were treated with heparinase re-suspended in heparinase buffer (20 mM Tris-HCl, pH 7.5, 50 mM NaCl, 4 mM CaCl2, and 0.01% BSA) at a concentration of 1 U/ml or chondroitinase re-suspended in chondroitinase buffer (50 mM Tris, pH 8.0, 60 mM sodium acetate and 0.02% bovine serum albumin) at a concentration of 1 U/ml for 1 h. at 37° C. As a control, cells were treated with enzyme buffer alone. Following incubation the enzyme solution was removed and cells were washed once with PBS to remove excess enzyme. Subsequently the cells were treated with peptide or infected with virus. The data was collected and analyzed as described previously.
# MEF 10.1 cells [4] = test: Visualization of bound biotinylated peptide on fixed MEF cells (fluorescence); assay type: binding, Mouse; conditions: 1.6 μg/mL, streptavidin fluorescence
# Description: Coverslips with fixed MEF cells prepared, washed in PBS and blocked with 1% BSA/PBS for 5 min. Following a PBS wash the nuclei were stained by using Hoechst (Life Technologies Molecular Probes, Grand Island, N.Y.) 1:100 in H2O— for 30 min at 37° C. Tissues were then blocked using a casein block solution (Scytek) for 5 min, AVIDIN/Biotin blocks (VECTOR, Burlingame, Calif.) for 20 min each at room temperature (RT) followed by a 5 min PBS wash. Biotinylated GGGY-p5+14 (SEQ ID NO: 25) or p5G (control) at 1.6 μg/mL in PBS was added and the tissues incubated overnight at 4° C. Following a PBS wash Alexa Fluor 594-conjugated streptavidin (Molecular Probes) was added at a 1:200 dilution in PBS for lhr at RT. Cells were then permeabilized by addition of 0.2% Triton X-100 (Sigma) in PBS for 10 min at RT and washed with a solution of 1% BSA in PBS for 30 min. The cells were then stained with Alexa Fluor 488-conjugated phalloidin (Molecular Probes) 1:100 dilution of stock in 1% BSA/PBS, for 45 min. at RT to visualize cytoskeleton. Slides were cover-slipped using a fluorescent mounting medium (Dako, Carpinteria, Calif.) to minimize photobleaching.
# MEF 10.1 cells [5] = test: Measuring amount of bound biotinylated peptide on MEF 10.1 cells (time resolved fluorescence); assay type: binding, Mouse
# Description: as §3
# MEF 10.1 Cells were grown in 24-well cell culture plates as described above. Each well was probed with 100 μL of biotinylated peptides at 1 μg/mL in cold DMEM/F12 with 0.1% BSA and incubated for one hour at 4° C. Following the incubation the cells were washed twice with ice cold PBS and fixed with 1.25% glutaraldehyde. Fixed samples were washed twice and stored in PBS for 24 hours. […] The plate was washed three times with PBS, enhancement solution added, and time resolved fluorescence measured on the Wallac Victor 3 (Perkin-Elmer).
# HCMV = test: Plaque reduction assay, HCMV infectivity in HFF cells; assay type: cell-based, Human Cytomegalovirus; conditions: 100 μM
# Description: as §1
# as §2, with “The plates were incubated at 37° C. in 5% CO2 for 4 days when plaques began to develop, following which they were stained with Coomassie stain (AMRESCO, Solon, Ohio).” left out
# HSV-2 = test: Plaque reduction assay, HSV-2 in VERO cells; assay type: cell-based, herpes simplex virus; conditions: 100 μM
# Description: as §1
# as §2, with “The plates were incubated at 37° C. in 5% CO2 for 4 days when plaques began to develop, following which they were stained with Coomassie stain (AMRESCO, Solon, Ohio).” left out
# [6] = mouse, in vivo; cited from earlier work
sequence,measurement,setting,value
GGGYSKAQKAQAKQAKQAQKAQKAQAKQAKQAQKAQKAQAKQAKQ [GGGY-p5+14],IC50,MCMV [1],5.2 µM
same,reduction in infection (MCMV),MCMV [1]; 10 μM,> 80%
same,inhibition of MCMV infection,MCMV [1]; 100 μM,effectively inhibited
same,inhibition of MCMV infection (plaque reduction),"MCMV [1]; 500 μg/ml, mouse embryonic fibroblasts incubated with peptide 30 min prior to virus",> 90%
same,direct neutralizing effect on the virus,"MCMV [1]; MCMV incubated with 100 μM peptide at 37° C. for 1 h, diluted to 1 μM",did not have any direct neutralizing effect on the virus itself
same,"plaque formation, peptide added after the adsorption or fusion phase of viral entry",MCMV [1]; post adsorption or post fusion,no significant reduction in plaque formation
same,"infection (plaque formation), peptide added before or in conjunction with virus addition",MCMV [1]; pre-adsorption or during adsorption,> 80%
same,concentrations giving significant reduction in infection,"MCMV [1]; serial dilution of peptide, FIG. 1(B)",> 5 µg/mL
same,effect of pre-incubation of peptide with heparin on inhibition of MCMV infection,MCMV [2],reduced its ability to inhibit MCMV infection in a dose-dependent manner
same,effect of chondroitinase treatment of cells on the activity of the peptide,MCMV [3]; chondroitinase 1 U/ml,nor did it have any effect on the activity of the peptide
same,"reduction in MCMV infectivity, peptide added to heparinase treated cells",MCMV [3]; heparinase 1 U/ml plus peptide,~80%
same,binding to mouse fibroblasts in culture,MEF 10.1 cells [4],bound mouse fibroblasts
same,reduction in the amount of bound peptide,MEF 10.1 cells [5]; cells treated with chondroitinase,~11%
same,reduction in the amount of bound peptide,MEF 10.1 cells [5]; cells treated with heparinase,~40%
same,reduction of infection (HCMV),HCMV,~80%
same,reduction of HSV 2 infection,HSV-2,~40%
same,peptide binding to GAGs expressed in healthy organs or tissues,[6],no evidence of peptide binding to GAGs expressed in healthy organs or tissues
